Literature values as cited in patent US20230233572A1, “OPHTHALMIC COMPOSITIONS COMPRISING A COMBINATION OF FLUOROQUINOLONE ANTIBACTERIAL AGENT AND AN ANTI-INFLAMMATORY AGENT” (priority 2020, published 2023).

System: corneal surface of rabbit eyes
Settings: in vivo

SMILES: CC(O)COC[C@H]1O[C@@H]2O[C@H]3[C@H](O)[C@@H](O)[C@@H](O[C@H]4[C@H](O)[C@@H](O)[C@@H](O[C@H]5[C@H](O)[C@@H](O)[C@@H](O[C@H]6[C@H](O)[C@@H](O)[C@@H](O[C@H]7[C@H](O)[C@@H](O)[C@@H](O[C@H]8[C@H](O)[C@@H](O)[C@@H](O[C@H]1[C@H](O)[C@H]2O)O[C@@H]8COCC(C)O)O[C@@H]7COCC(C)O)O[C@@H]6COCC(C)O)O[C@@H]5COCC(C)O)O[C@@H]4COCC(C)O)O[C@@H]3COCC(C)O (stereo partly drawn) [HP-β-CD, hydroxypropyl-β-cyclodextrin]
- Tolerance by the corneal surface: well tolerated
- Toxicity or irritation in rabbit eyes: not to be toxic or irritating
